Test results taken from patent EP1134585B1, “Biosensor and method for the monitoring of herbicides” (CONSIGLIO NAZIONALE DELLE RICERCHE, priority 2000, dated 2001).

What was measured:
Phe216->Thr = conditions: cited from earlier work
[1] = test system: thylakoids from Amaranthus retroflexus, Mutant; type: biochemical; conditions: herbicide concentration 10^-6 M
D1 protein A/a251->lIe = D1 protein A/a251->lIe (Chlamydomonas reinhardtii, UniProt P07753, A251I); conditions: cited from earlier work
Thr226->Met = conditions: cited from earlier work
[2] = biological target: T1, thylakoids from Spinacia oleracea (Spinacia oleracea, UniProt P69560); experiment: Biosensor fluorescence response (Tables B and C); type: biochemical; conditions: for inhibition at 0.01 µM: control printed as 100
T1 construct: biomediator based on thylakoids from Spinacia oleracea; from tissue; host or cells: thylakoids isolated from mature spinach plants
Description: (§1) According to a specially advantageous embodiment, Bioherbi is an equipment weighing in all about […], occupies a space of about 30x30x20 cm and is constituted as reported below. • a) flow cell wherein the biomediator is immobilized. […] The black plastic material allows to fit the biomediator in the dark. The biomediator in entrapped in the inner section. The surface tightness of the reading hole is obtained using a glass cover plate for microscopy. The inner cell, where the mediator is entrapped, has un volume from 50 to 300 µl. • b) a peristaltic pump is the hydraulic part to withdraw the sample containing the herbicide to be analyzed, which moves said sample through the flow cell and brings it in close contact with the biomediator. According to a specially advantageous embodiment a single block is used as holder for the herbicide and peristaltic pump. The flow can be varied from 0,2 to 2 ml/min depending on the sample. Higher flow increases the sensitivity to the herbicide because the latter interacts with a higher number of bonding sites on PS II. By laboratory tests it was found out that, when the solution of the herbicide flows, the efficiency of the fluorescence measure could be impaired by light scattering effects. Accordingly it is preferred to carry out the measure in stopped-flow conditions using a flow switch. The biomediator immobilized within the flow cell, following each measure, is washed and regenerated by a suitable buffer solution. A valve allows to forward alternatively the flow of the buffer or the solution containing the herbicide to be analyzed. • c) optical fiber fluorescence sensor closely connected to the flow cell. The fluorescence emitted from green plants depends on the photosynthetic activity. Recent studies on fluorescence measuring techniques made this feature a very important tool in the basic and applied research about the plant physiology (D Lazar, 1999, Biochim Biophys Acta 1-28). Bioherbi analyzer measures the fluorescence emitted from photosynthetic complexes and modifications determined by the presence of herbicide. The sensor is tightly connected to the flow cell to avoid any infiltration of external light and provides the excitation light detecting the fluorescence signal. The excitation light is emitted from an emitting diode at a very narrow wavelength of about 650 nm, which is quickly absorbed by the Photosystem II of the photosynthetic organisms and has the advantage in that it provides light with reduced heating and emits the signal very quickly. A "feedback" optical circuit controls and adjusts the variations of the intensity of the emitted light also resulting from variations of ambient temperature. The analyzer consists of an high capacity photodiode associated to an amplifier. The optical system responds perfectly to the fluorescence emission wavelength of 700 nm and stops the reflection light of lower wavelength resulting from the emission light. The sensor is connected to the control computer by an about 30 cm long fiber. According to a variation of the biosensor we used a more complex fluorescence system, adjustable as the excitation light in order to allow the use, as biomediator, of photosynthetic organisms requiring specific wavelengths. • e) a control and data processing computer. […] The concentration of the herbicide is proportional to the area over the fluorescence curve (Table 1A-B); the inhibition of this area is closely related to the washing times whereby it is possible to determinate the concentration of the herbicide also using the washing time required to obtain an almost complete inhibition of the area (see Table 1C). The fluorescence signal received by the sensor is processed within the control chamber by transduction systems of the signal and analog-to-digital converters. The system is computerized with a very sophisticated microprocessor able to process the data of the fluorescence signal. […]

Vicia faba thylakoids = Vicia faba thylakoids (Vicia faba, UniProt P13910); experiment: Biosensor fluorescence response, immobilized thylakoids (Table A); type: biochemical; conditions: contact time 20 min
Description: as §1

D1 protein Asn266->Asp = conditions: code loxlla; cited from earlier work
Tyr222->Phe = conditions: code T4; cited from earlier work
Gly228->Arg = conditions: cited from earlier work
I1e228->Leu = conditions: cited from earlier work
I1e229->Ala = conditions: cited from earlier work
monoclonal antibodies = conditions: ELISA (Schneider et al. 1994); cited from earlier work
[3] = test system: PS II isolated from thermophilic cyanobacteria; conditions: immobilized PS II, Clark electrode (Koblizek et al.); cited from earlier work
Thr226->Ala = conditions: cited from earlier work
Phe216→Val = conditions: cited from earlier work
[4] = biological target: D1 protein Phe211→Ala Met214→Thr (Chlamydomonas reinhardtii, UniProt P07753, F211A/M214T); conditions: cited from earlier work
I1e229→Met = conditions: R. capsulatus; cited from earlier work
[5] = test system: thylakoids from Amaranthus retroflexus, Wild-type; experiment: Biosensor fluorescence response (Table D), wild-type biomediator; type: biochemical; conditions: herbicide concentration 10^-6 M
PhC2,6―Pro = conditions: cited from earlier work
Gly228->Val = conditions: cited from earlier work
D1 protein Phe255->Tyr = D1 protein Phe255->Tyr (Chlamydomonas reinhardtii, UniProt P07753, F255Y); conditions: code Ar207+; cited from earlier work
I1e229->Cys = conditions: cited from earlier work
PS II = PS II treated with CdCl2, refrigeration at 5°C, flow 0,2-2,0 ml/m
Description: To further increase the stability of the biomediator the usefulness of a system for the refrigeration of the solution containing herbicide forwarded into the measuring cell experimentally was observed.

Phe216->Leu = conditions: cited from earlier work
[6] = Table B, first column Diuron 10^-8 M, contact time 15 min
[7] = Table B, second column Diuron 10^-8 M, contact time 15 min
[8] = Diuron 10^-9 M, after regeneration

For `CN(C)C(=O)Nc1ccc(Cl)c(Cl)c1` [Diuron], the “Resistance R/S” value (Phe216->Thr) is listed as “Diuron 1”, the “Area % inhibition Mutant” value [1] is listed as 96% and the “Supersensitivity R/S” value (D1 protein A/a251->lIe) is listed as “Diuron 0,6”. The “Resistance R/S” value (Thr226->Met) was “Diuron 1”, the Area [2, 6] was 12700 and the Fv/Fm [2, 6] was 0,768. For the same compound, the inhibition at 0.01 µM [2, 6] was 88%, the Area [2, 7] was 10400 and the Fv/Fm [2, 7] was 0,756. The inhibition at 0.01 µM [2, 7] was 71%, the Area ([2]; Table C, Diuron 10^-7M, 10 min) was 7830 and the Fv/Fm ([2]; Table C, Diuron 10^-7M, 10 min) was 0,746. The inhibition at 0.1 µM ([2]; Table C, Diuron 10^-7M, 10 min) was 32%, the Area ([2]; Table C, Diuron 10^-7M, 40 min) was 6120 and the Fv/Fm ([2]; Table C, Diuron 10^-7M, 40 min) was 0,711. For the same compound, the inhibition at 0.1 µM ([2]; Table C, Diuron 10^-7M, 40 min) was 47%, the Area ([2]; Table C, Diuron 10^-7M, 50 min) was 5090 and the Fv/Fm ([2]; Table C, Diuron 10^-7M, 50 min) was 0,700. For the same compound, the inhibition at 0.1 µM ([2]; Table C, Diuron 10^-7M, 50 min) was 56%, the Area ([2]; Table C, Diuron 10^-7M, 60 min) was 4160 and the Fv/Fm ([2]; Table C, Diuron 10^-7M, 60 min) was 0,684. For the same compound, the inhibition at 0.1 µM ([2]; Table C, Diuron 10^-7M, 60 min) was 64%, the Area (Vicia faba thylakoids; Diuron 10^-6 M, area over the fluorescence curve) was 10300 and the inhibition at 1 µM (Vicia faba thylakoids; Diuron 10^-6 M, inhibition of area vs control) was 93%. The Fv/Fm (Vicia faba thylakoids; Diuron 10^-6 M, mean of at least three measures) was 0,540, the Area (Vicia faba thylakoids; [8]) was 4030 and the Fv/Fm (Vicia faba thylakoids; [8]) was 0,475. For the same compound, the inhibition at 0.001 µM (Vicia faba thylakoids; [8]) was 60%, the “Supersensitivity R/S” value (D1 protein Asn266->Asp) was “Diuron 0,7” and the “Supersensitivity R/S” value (Tyr222->Phe) was “Diuron <0,0001”. For the same compound, the “Resistance R/S” value (Gly228->Arg) was “Diuron 1”, the “Resistance R/S” value (I1e228->Leu) was “Diuron 1” and the “Resistance R/S” value (I1e229->Ala) was “Diuron 1”. The sensitivity (monoclonal antibodies) was 200 pM, the sensitivity [3] was 10^-10 mol/l and the “Resistance R/S” value (Thr226->Ala) was “Diuron 1”. The “Resistance R/S” value (Phe216→Val) was “Diuron 1”, the “Supersensitivity R/S” value [4] was “Diuron 0,8” and the “Resistance R/S” value (I1e229→Met) was “Diuron 1”. The “Area % inhibition Wild-type” value [5] was 99%, the “Resistance R/S” value (PhC2,6―Pro) was “patron 1” and the “Resistance R/S” value (Gly228->Val) was “Diuron 1”. The “Supersensitivity R/S” value (D1 protein Phe255->Tyr) was “Diuron 0,6-0,8”, the “Resistance R/S” value (I1e229->Cys) was “Diuron 1” and the “sensitivity (concentration)” value (PS II) was “lower than nanomolar”. For the same compound, the “Resistance R/S” value (Phe216->Leu) was “Diuron 1”.
